The text below walks through data of the OligoGym collection.

“And” between values parts separate entries of the source, which are not always exact repeats. Equal values may be shown once. After the bases stand the sugars from the 5' end (letter, count) and the backbone: PS all phosphorothioate, else s phosphorothioate and o phosphodiester by linkage. Methylation of C is not given here. e = 2'-O-(2-methoxyethyl) (MOE); k = constrained ethyl (cEt); d = 2'-deoxy (DNA)

In data set [1] the target is SOD1. The conditions noted are these: ASO.
For data set [2], the target named is MALAT1. The settings on record: ASO, A431, 0.005 µM.

For “AAAATACAGGTCATTGA (sugars e3 k2 d7 k2 e3, PS)”, the target mRNA inhibition in data set [1] (HepG2, 3 µM) came out at 28%.

Turning to “AAACAGACATTTTAACTGAG (sugars e5 d10 e5, PS)”, in data set [1] (HepG2, 5 µM), the target mRNA inhibition was determined as 4%.

“AAACTATACAAATCTTC (sugars e2 k2 d9 k2 e2, PS)”: in data set [1] (HepG2, 5 µM), the target mRNA inhibition was 55%.

In the case of “AAATCTTCCAAGTGATC (sugars e2 k2 d8 k2 e3, PS)”, the target mRNA inhibition in data set [1] (HepG2, 5 µM) stood at 46%.

On to “AAGAAATTCTGACAAGT (sugars e3 k2 d7 k2 e3, PS)”, for which the target mRNA inhibition in data set [1] (HepG2, 3 µM) was determined as 18%.

Consider “AAGTCACACAATTACAC (sugars e2 k2 d8 k2 e3, PS)”, for which the target mRNA inhibition in data set [1] (HepG2, 5 µM) amounted to 41%.

“AAGTGATCATAAATCAGTTT (sugars e5 d10 e5, PS)”: the target mRNA inhibition came out at 86% in data set [1] (HepG2, 4 µM); 8% in data set [1] (HepG2, 5 µM); 96% in data set [1] (HepG2, 12 µM).

For the sequence “AAGTTTAATACCCATCT (sugars e3 k2 d7 k2 e3, PS)”, the target mRNA inhibition in data set [1] (HepG2, 3 µM) was 12%.

As for “AATAAGTGCCATACAGG (sugars e2 k2 d9 k2 e2, PS)”, the target mRNA inhibition in data set [1] (HepG2, 5 µM) worked out at 36%.

For “AATAGCCTCATAATAAG (sugars e2 k2 d9 k2 e2, PS)”, the target mRNA inhibition in data set [1] (HepG2, 5 µM) was determined as 25%.

Regarding “AATCTTCCAAGTGATCA (sugars e2 k2 d8 k2 e3, PS)”, the target mRNA inhibition in data set [1] (HepG2, 5 µM) stood at 19%.

For the sequence “AATGATGCAATGGTCTCCTG (sugars e5 d10 e5, PS)”, the target mRNA inhibition in data set [1] (HepG2, 5 µM) stood at 0%.

With “AATGCTTCCCCACACCT (sugars e3 k2 d7 k2 e3, PS)”, in data set [1] (HepG2, 3 µM), the target mRNA inhibition turned out to be 35%.

As for “AATTCTGACAAGTTTAA (sugars e3 k2 d7 k2 e3, PS)”, the target mRNA inhibition in data set [1] (HepG2, 3 µM) came out at 15%.

Regarding “ACACCTTCACTGGTCCA (sugars e3 k2 d7 k2 e3, PS)”, in data set [1] (HepG2, 3 µM), the target mRNA inhibition stood at 20%.

As for “ACACCTTCACTGGTCCATTA (sugars e5 d10 e5, linkages s1 o3 s11 o3 s1)”, the target mRNA inhibition is 5% in data set [1] (A431, 0.12 µM); 4% in data set [1] (A431, 0.6 µM); 4% in data set [1] (A431, 3 µM); 10% in data set [1] (A431, 15 µM); 50% and 36% and 39% in data set [1] (HepG2, 2 µM).

For “ACAGGCTTGAATGACAAAGA (sugars e5 d10 e5, PS)”, the target mRNA inhibition in data set [1] (HepG2, 5 µM) stood at 19%.

As to “ACAGGGTTTTTATTCAC (sugars e3 k2 d7 k2 e3, PS)”, the target mRNA inhibition in data set [1] (HepG2, 3 µM) amounted to 10%.

For “ACAGGTACTTTAAAGCA (sugars e2 k2 d8 k2 e3, PS)”, in data set [1] (HepG2, 5 µM), the target mRNA inhibition is 14%.

Consider “ACAGTGTTTAATGTTTA (sugars e3 k2 d7 k2 e3, linkages s1 o2 s9 o2 s2)”, for which the target mRNA inhibition turned out to be 12% in data set [1] (A431, 0.12 µM); 26% in data set [1] (A431, 0.6 µM); 45% in data set [1] (A431, 3 µM); 47% in data set [1] (A431, 15 µM); 51% in data set [1] (HepG2, 0.222 µM); 70% in data set [1] (HepG2, 0.667 µM). The target mRNA inhibition in data set [1] (HepG2, 2 µM) is 80%; in data set [1] (HepG2, 6 µM) it was 74%.

“ACCAGTGTGCGGCCAATGAT (sugars e5 d10 e5, PS)”: in data set [1] (HepG2, 5 µM), the target mRNA inhibition came to 0%.

With “ACCCATCTGTGATTTAA (sugars e2 k2 d8 k2 e3, PS)”, the target mRNA inhibition in data set [1] (HepG2, 5 µM) was determined as 33%.

As for “ACCTGCACTGGTACAGC (sugars e3 k2 d7 k2 e3, PS)”, the target mRNA inhibition in data set [1] (HepG2, 3 µM) was found to be 12%.

As to “ACTATACAAATCTTCCA (sugars e3 k2 d7 k2 e3, PS)”, in data set [1] (HepG2, 3 µM), the target mRNA inhibition was 10%.

Consider “ACTCATGAACATGGAATCCA (sugars e5 d10 e5, PS)”, for which, in data set [1] (HepG2, 5 µM), the target mRNA inhibition is 27% and 20%.

“ACTCTGAAAAAGTCACACAA (sugars e5 d10 e5, PS)”: the target mRNA inhibition in data set [1] (HepG2, 5 µM) worked out at 21%.

Take “ACTGGTACAGCCTGCTGTAT (sugars e5 d10 e5, PS)”: the target mRNA inhibition in data set [1] (HepG2, 5 µM) was 22% and 28%.

Take “ACTGGTCCATTACTTTC (sugars e3 k2 d7 k2 e3, PS)”: the target mRNA inhibition in data set [1] (HepG2, 3 µM) turned out to be 14%.

“ACTTTAAAGCAACTCTGAAA (sugars e5 d10 e5, PS)”: the target mRNA inhibition in data set [1] (HepG2, 5 µM) is 0%.

With “AGACACATCGGCCACAC (sugars e3 k2 d7 k2 e3, PS)”, in data set [1] (HepG2, 3 µM), the target mRNA inhibition is 21%.

In the case of “AGACATTTTAACTGAGT (sugars e2 k2 d8 k2 e3, PS)”, the target mRNA inhibition in data set [1] (HepG2, 5 µM) worked out at 46%.

Regarding “AGATCACAGAATCTTCAATA (sugars e5 d10 e5, PS)”, the target mRNA inhibition in data set [1] (HepG2, 5 µM) was 14% and 29%.

As for “AGATTACAGTGTTTAAT (sugars e2 k2 d8 k2 e3, PS)”, the target mRNA inhibition in data set [1] (HepG2, 0.1875 µM) was 16%; in data set [1] (HepG2, 0.75 µM), 50%; in data set [1] (HepG2, 3 µM), 62%; in data set [1] (HepG2, 5 µM), 68%; in data set [1] (HepG2, 12 µM), 77%.

As to TGGACATTGCCTCTTC (sugars k3 d10 k3, PS), the target mRNA inhibition in data set [2] was determined as 29%.

For the sequence TGGCATATGCAGATAA (sugars k3 d10 k3, PS), the target mRNA inhibition in data set [2] is 69% and 89%.

Consider TGGCGATGTGGCAGAG (sugars k3 d10 k3, PS), for which the target mRNA inhibition in data set [2] amounted to 35%.

For TGGTACACCCAGTGGC (sugars k3 d10 k3, PS), the target mRNA inhibition in data set [2] was 17%.

TGTAAAACATTGCCTA (sugars k3 d10 k3, PS): the target mRNA inhibition in data set [2] was -7%.

Turning to TGTAGTTAATGTCAGC (sugars k3 d10 k3, PS), the target mRNA inhibition in data set [2] was 67% and 42%.

Regarding TGTCAATTAATGCTAG (sugars k3 d10 k3, PS), the target mRNA inhibition in data set [2] amounted to 42%.

Turning to TGTGATAGTTCAGGGC (sugars k3 d10 k3, PS), in data set [2], the target mRNA inhibition was -12%.

Take TGTTCGAGAAATCGGA (sugars k3 d10 k3, PS): the target mRNA inhibition in data set [2] came out at 17%.

For TTAAAAAGGCTCGATG (sugars k3 d10 k3, PS), the target mRNA inhibition in data set [2] was 21%.

Turning to TTAAATGACGCAATTC (sugars k3 d10 k3, PS), the target mRNA inhibition in data set [2] amounted to 4%.

For TTAAATTACACCAGTC (sugars k3 d10 k3, PS), the target mRNA inhibition in data set [2] is 50% and 65%.

TTAAATTGATGGGCTT (sugars k3 d10 k3, PS): the target mRNA inhibition in data set [2] came out at 22%.

TTAAGAGAAGCCCAGG (sugars k3 d10 k3, PS): the target mRNA inhibition in data set [2] is 24%.

Regarding TTAATCACCTTCGGTT (sugars k3 d10 k3, PS), in data set [2], the target mRNA inhibition came to 27%.

For the sequence TTAATGTAGTGTAACA (sugars k3 d10 k3, PS), in data set [2], the target mRNA inhibition amounted to 30%.

With TTACAAAACGAATTCA (sugars k3 d10 k3, PS), in data set [2], the target mRNA inhibition was 10%.

Regarding TTACACCAGTCCTTTT (sugars k3 d10 k3, PS), the target mRNA inhibition in data set [2] was 37%.

TTACACCTCAGTACGA (sugars k3 d10 k3, PS): the target mRNA inhibition in data set [2] came out at 15%.

With TTACGAAAGTCCTTCA (sugars k3 d10 k3, PS), the target mRNA inhibition in data set [2] turned out to be 28%.

For TTACTTTCCATTACGC (sugars k3 d10 k3, PS), the target mRNA inhibition in data set [2] amounted to 16%.

Regarding TTAGAGAAGAATCCCC (sugars k3 d10 k3, PS), the target mRNA inhibition in data set [2] was determined as 31%.

On to TTAGAGGGCCTCTATT (sugars k3 d10 k3, PS), for which the target mRNA inhibition in data set [2] stood at 3%.

In the case of TTATATTAGGTTCTCG (sugars k3 d10 k3, PS), the target mRNA inhibition in data set [2] is -6%.

As to TTATCCCTAACATGCA (sugars k3 d10 k3, PS), the target mRNA inhibition in data set [2] came out at 8%.

Turning to TTATGGAACTTGAATG (sugars k3 d10 k3, PS), the target mRNA inhibition in data set [2] was 7%.

Turning to TTATTCCAGGATTAAT (sugars k3 d10 k3, PS), the target mRNA inhibition in data set [2] is -5%.

As to TTCAACTGGGAATACT (sugars k3 d10 k3, PS), the target mRNA inhibition in data set [2] was found to be 17%.

On to TTCCCTATATAAGGTC (sugars k3 d10 k3, PS), for which, in data set [2], the target mRNA inhibition is 6%.

Turning to TTCCGCCGCCTCTTAA (sugars k3 d10 k3, PS), the target mRNA inhibition in data set [2] was 22%.

With TTCCGCTAAGATGCTA (sugars k3 d10 k3, PS), the target mRNA inhibition in data set [2] was determined as 9%.

Turning to TTCCGTTACGAAAGTC (sugars k3 d10 k3, PS), the target mRNA inhibition in data set [2] stood at 33%.

TTCCTAGCTTCACCAC (sugars k3 d10 k3, PS): the target mRNA inhibition in data set [2] was determined as 36%.

Take TTCCTTATTTAGAGGG (sugars k3 d10 k3, PS): in data set [2], the target mRNA inhibition came to 14%.

Consider TTCCTTTCATAGAGCC (sugars k3 d10 k3, PS), for which, in data set [2], the target mRNA inhibition was 70% and 88%.

In the case of TTCGCAGACAAAGTTT (sugars k3 d10 k3, PS), the target mRNA inhibition in data set [2] was 22%.

TTCTACCGTTTTTCAG (sugars k3 d10 k3, PS): the target mRNA inhibition in data set [2] stood at 10%.

TTGAAACCGATTATGG (sugars k3 d10 k3, PS): the target mRNA inhibition in data set [2] was 42%.

As to TTGACAAGCAATTAAC (sugars k3 d10 k3, PS), the target mRNA inhibition in data set [2] stood at 7%.

For the sequence TTGAGGCAAGTCCTCA (sugars k3 d10 k3, PS), the target mRNA inhibition in data set [2] came to 3%.

Turning to TTGAGGGACAGTAGGT (sugars k3 d10 k3, PS), the target mRNA inhibition in data set [2] was 21%.

In the case of TTGCCCCTCCCCTTTA (sugars k3 d10 k3, PS), in data set [2], the target mRNA inhibition stood at 42%.

Regarding TTGCTTACACACAACT (sugars k3 d10 k3, PS), the target mRNA inhibition in data set [2] is 18%.

For TTGGCCTACTCAAGCT (sugars k3 d10 k3, PS), the target mRNA inhibition in data set [2] was -8%.

As for TTTACAGAAGTCTCGG (sugars k3 d10 k3, PS), the target mRNA inhibition in data set [2] is -31%.

With TTTAGAGGGCCTCTAT (sugars k3 d10 k3, PS), in data set [2], the target mRNA inhibition was 17%.

With TTTAGGATTCTAGACA (sugars k3 d10 k3, PS), the target mRNA inhibition in data set [2] amounted to 25%.

As to TTTATAGACGGAGAAC (sugars k3 d10 k3, PS), the target mRNA inhibition in data set [2] was -6%.

Turning to TTTGAGTATGCTGATA (sugars k3 d10 k3, PS), in data set [2], the target mRNA inhibition came to 47%.

Take TTTTTGTGGTTATAGC (sugars k3 d10 k3, PS): the target mRNA inhibition in data set [2] is 75% and 88%.

On to TTTTTGTTCGAGAAAT (sugars k3 d10 k3, PS), for which, in data set [2], the target mRNA inhibition is -7%.
